Bounds are passed on as bounds.

The nature of assay [1]: Selectivity index, ratio of IC50 for cytotoxicity against human HL7702 cells to IC50 for cytotoxicity against human ECa-109 cells.
Assay [2] is described as follows: Selectivity index, ratio of IC50 for cytotoxicity against human HL7702 cells to IC50 for cytotoxicity against human SGC-7901 cells.
The test system of another assay is SGC-7901. In words: Cytotoxicity against human SGC-7901 cells assessed as reduction in cell viability incubated for 48 hrs by MTT assay. Format: functional, cell-based. As to conditions: SGC-7901, 48 h. (Tetrazolium assays rely on reduction of a dye to a coloured formazan, in cell work by metabolically active cells.)
The next assay relates to ECa-109 cell line. Briefly: Cytotoxicity against human ECa-109 cells assessed as reduction in cell viability incubated for 48 hrs by MTT assay. The format is functional, cell-based. As to conditions: ECa-109, 48 h.
The test system of the next assay is HeLa. In words: Cytotoxicity against human HeLa cells assessed as reduction in cell viability incubated for 48 hrs by MTT assay. The format is functional, cell-based.
The subject of another assay is L02. Briefly: Cytotoxicity against human HL7702 cells assessed as reduction in cell viability incubated for 48 hrs by MTT assay. Format: ADME, cell-based. As to conditions: L02, 48 h.
A further assay concerns HepG2. Briefly: Cytotoxicity against human HepG2 cells assessed as reduction in cell viability incubated for 48 hrs by MTT assay. The format is functional, cell-based. As to conditions: HepG2, 48 h.

The term IC50 denotes the midpoint of a concentration-inhibition curve. With `COc1cccc2c1C(=O)c1c(O)c3c(c(O)c1C2=O)C[C@@](O)(C(=O)CO)C[C@@H]3O[C@H]1C[C@H](N)[C@H](O)[C@H](C)O1` [DOXORUBICIN], the figures for the “Ratio IC50” value in assay [1] and in assay [2] were 0.46 and 0.61, respectively. Further, the IC50 with SGC-7901 turned out to be 1.53 µM; in the assay with ECa-109 cell line, 2.06 µM; in the assay with HeLa it was 1.07 µM; in the assay on L02, 0.94 µM.
With `CCCCCCCCn1nnc2c1C(C)(C)[C@@H]1CC[C@]3(C)[C@H](CC[C@@H]4[C@H]5[C@H]6OC[C@@]5(CCC6(C)C)CC[C@]43C)[C@@]1(C)C2`, the half-inhibitory concentration (IC50) in the assay with HepG2, in the assay with SGC-7901, with ECa-109 cell line, in the assay on HeLa and in the assay with L02 was more than 80 µM throughout.
Regarding `CC1(C)CC[C@]23CC[C@]4(C)[C@H](CC[C@@H]5[C@@]6(C)Cc7nnn(Cc8ccc(C(F)(F)F)cc8)c7C(C)(C)[C@@H]6CC[C@]54C)[C@H]2[C@H]1OC3`, the concentration for half-maximal inhibition (IC50) in the assay on HepG2 turned out to be 28.9 µM; with SGC-7901, 32.2 µM; with ECa-109 cell line, 33.9 µM; in the assay on HeLa it was 28.5 µM; in the assay with L02, 25.6 µM.
The like results for `COc1ccccc1CCn1n[n+](C)c2c1C(C)(C)[C@@H]1CC[C@]3(C)[C@H](CC[C@@H]4[C@H]5[C@H]6OC[C@@]5(CCC6(C)C)CC[C@]43C)[C@@]1(C)C2` were, in that order, 1.55 µM, 1.24 µM, 1.67 µM, 1.67 µM and 1.4 µM.
Take `C[n+]1nn(Cc2cccc(F)c2)c2c1C[C@]1(C)[C@H]3CC[C@@H]4[C@H]5[C@H]6OC[C@@]5(CCC6(C)C)CC[C@@]4(C)[C@]3(C)CC[C@H]1C2(C)C`: the IC50 is 2.24 µM in the assay on HepG2; 3.05 µM in the assay with SGC-7901; 3 µM in the assay on ECa-109 cell line; 2.78 µM with HeLa; 1.41 µM in the assay on L02.
In the same order, the values of `CCCCn1nnc2c1C(C)(C)[C@@H]1CC[C@]3(C)[C@H](CC[C@@H]4[C@H]5[C@H]6OC[C@@]5(CCC6(C)C)CC[C@]43C)[C@@]1(C)C2` are 10.7 µM, 6.61 µM, 10.5 µM, 6.26 µM and 7.86 µM.
In the same order, the values of `C[n+]1nn(Cc2ccccc2F)c2c1C[C@]1(C)[C@H]3CC[C@@H]4[C@H]5[C@H]6OC[C@@]5(CCC6(C)C)CC[C@@]4(C)[C@]3(C)CC[C@H]1C2(C)C` are 2.99 µM, 2.56 µM, 3.08 µM, 2.42 µM and 1.68 µM.
The like results for `CC1(C)CC[C@]23CC[C@]4(C)[C@H](CC[C@@H]5[C@@]6(C)Cc7nnn(Cc8ccccc8Cl)c7C(C)(C)[C@@H]6CC[C@]54C)[C@H]2[C@H]1OC3` were, in that order, 56.1 µM, 49.9 µM, 58.9 µM, 41.3 µM and 40.5 µM.
In the case of `CC1(C)CC[C@]23CC[C@]4(C)[C@H](CC[C@@H]5[C@@]6(C)Cc7nnn(Cc8ccc(Cl)c(Cl)c8)c7C(C)(C)[C@@H]6CC[C@]54C)[C@H]2[C@H]1OC3`, the IC50 was found to be 53.9 µM with HepG2; 44.5 µM in the assay with SGC-7901; 43.6 µM with ECa-109 cell line; 32.6 µM in the assay on HeLa; 35.5 µM in the assay with L02.
On to `C[n+]1nn(Cc2ccccc2Cl)c2c1C[C@]1(C)[C@H]3CC[C@@H]4[C@H]5[C@H]6OC[C@@]5(CCC6(C)C)CC[C@@]4(C)[C@]3(C)CC[C@H]1C2(C)C`, for which the IC50 in the assay with HepG2 worked out at 3.03 µM; in the assay with SGC-7901, 2.24 µM; with ECa-109 cell line, 1.98 µM; in the assay with HeLa, 2.71 µM; with L02 it was 1.3 µM.
The like results for `CC1(C)CC[C@]23CC[C@]4(C)[C@H](CC[C@@H]5[C@@]6(C)Cc7nnn(Cc8ccc(F)cc8F)c7C(C)(C)[C@@H]6CC[C@]54C)[C@H]2[C@H]1OC3` were, in that order, 6.56 µM, 9.02 µM, 10.9 µM, 10.2 µM and 7.47 µM.
On to `COc1cccc(CCn2nnc3c2C(C)(C)[C@@H]2CC[C@]4(C)[C@H](CC[C@@H]5[C@H]6[C@H]7OC[C@@]6(CCC7(C)C)CC[C@]54C)[C@@]2(C)C3)c1`, for which the IC50 in the assay on HepG2 was found to be 31.9 µM; in the assay on SGC-7901, 39.8 µM; in the assay with ECa-109 cell line, 25.5 µM; with HeLa, 23.6 µM; with L02 it was 20.9 µM.
In the same order, the values of `CCCCCCCCn1n[n+](C)c2c1C(C)(C)[C@@H]1CC[C@]3(C)[C@H](CC[C@@H]4[C@H]5[C@H]6OC[C@@]5(CCC6(C)C)CC[C@]43C)[C@@]1(C)C2` are 2.01 µM, 2.18 µM, 3 µM, 2.55 µM and 1.34 µM.

These data come from ChEMBL document CHEMBL4706545, “Antiproliferative effect of mitochondria-targeting allobetulin 1,2,3-triazolium salt derivatives and their mechanism of inducing apoptosis of cancer cells” (Eur J Med Chem, 2020).
